Measured values taken from ChEMBL document CHEMBL5385918, “Aculeatiols A-G: Lovastatin Derivatives Extracted from Aspergillus aculeatus” (2024).
Active and inactive are the calls of the source. The calls are words filed in the database; no cut-off is given here.

Legend:
[1] = system: HepG2; experiment: Anti-lipid accumulation activity in human HepG2 cells assessed as reduction in FFA-induced intracellular lipid level pretreated with compound for 48 hrs followed by FFA addition and measured after 48 hrs; format: functional, cell-based; conditions: time 96.0 hrs
[2] = system: HepG2; experiment: Upregulation of ACOX1 mRNA expression in FFA-induced human HepG2 cells at 5 to 10 uM pretreated with compound for 24 hrs followed by FFA-induction and measured after 24 hrs by qRT-PCR analysis; format: functional, cell-based; conditions: dose 5-10 µM, time 48.0 hrs
[3] = system: HepG2; experiment: Anti-lipid accumulation activity in human HepG2 cells assessed as reduction in FFA-induced intracellular triglyceride content incubated for 24 hrs; format: functional, cell-based; conditions: dose 5-10 µM
[4] = system: HepG2; experiment: Downregulation of FAS mRNA expression in FFA-induced human HepG2 cells at 5 to 10 uM pretreated with compound for 24 hrs followed by FFA-induction and measured after 24 hrs by qRT-PCR analysis; format: functional, cell-based; conditions: dose 5-10 µM, time 48.0 hrs
[5] = system: HepG2; experiment: Downregulation of SCD1 mRNA expression in FFA-induced human HepG2 cells at 5 to 10 uM pretreated with compound for 24 hrs followed by FFA-induction and measured after 24 hrs by qRT-PCR analysis; format: functional, cell-based; conditions: dose 5-10 µM, time 48.0 hrs
[6] = system: HepG2; experiment: Downregulation of FATP5 mRNA expression in FFA-induced human HepG2 cells at 5 to 10 uM pretreated with compound for 24 hrs followed by FFA-induction and measured after 24 hrs by qRT-PCR analysis; format: functional, cell-based; conditions: dose 5-10 µM, time 48.0 hrs
[7] = system: HepG2; experiment: Upregulation of PPARalpha mRNA expression in FFA-induced human HepG2 cells at 5 to 10 uM pretreated with compound for 24 hrs followed by FFA-induction and measured after 24 hrs by qRT-PCR analysis; format: functional, cell-based; conditions: dose 5-10 µM, time 48.0 hrs
[8] = system: HepG2; experiment: Anti-lipid accumulation activity in human HepG2 cells assessed as reduction in FFA-induced number of lipid droplets at 5 to 10 uM pretreated with compound for 24 hrs followed by FFA addition and measured after 48 hrs by oil red O staining based analysis; format: functional, cell-based; conditions: dose 5-10 µM, time 72.0 hrs
[9] = system: HepG2; experiment: Anti-lipid accumulation activity in human HepG2 cells assessed as reduction in FFA-induced intracellular lipid level at 10 uM pretreated with compound for 48 hrs followed by FFA addition and measured after 48 hrs; format: functional; set-up: scale not given: the % may be the effect or the level left; conditions: time 96 hrs
[10] = system: HepG2; experiment: Downregulation of FATP2 mRNA expression in FFA-induced human HepG2 cells at 5 to 10 uM pretreated with compound for 24 hrs followed by FFA-induction and measured after 24 hrs by qRT-PCR analysis; format: functional, cell-based; conditions: dose 5-10 µM, time 48.0 hrs

## C[C@@H]1C=C2C=C[C@]3(C)OCCC(=O)[C@]3(C)[C@H]2[C@@H](O)C1
[1]
  Activity: Active

## C=C(C)CC(=O)O[C@@H]1C[C@H](C)C[C@@H]2CC(=O)[C@@H](C)[C@H]([C@@H]3O[C@H]3[C@H](O)[C@H]3C=C(C)C(=O)O3)[C@H]21
[1]
  Activity: Active

## C=C(C)CC(=O)O[C@@H]1C[C@H](C)C[C@@H]2CC(=O)[C@@H](C)[C@H]([C@@H]3O[C@H]3[C@@H](O)[C@H]3C=C(C)C(=O)O3)[C@H]21
[1]
  Activity: Active

## C\C(=C/C=C/C=C/[C@H]1[C@@H](C)[C@H](O)[C@@H](O)[C@H]2C[C@@H](C)C[C@@H](C)[C@H]12)C(=O)O
[2]
  Activity: Active
[3]
  Activity: Dose-Dependent Effect
[1]
  Activity: Active
[4]
  Activity: Active
[5]
  Activity: Active
[6]
  Activity: Active
[7]
  Activity: Active
[8]
  Activity: Active
[9]
  Activity: 50%
[10]
  Activity: Active

## C/C(=C\[C@H](O)[C@H](O)[C@H](O)[C@H](O)[C@@H]1[C@@H]2[C@@H](CC(=O)[C@@H]1C)C[C@@H](C)C[C@H]2O)C(=O)O
[1]
  Activity: Active

## C=C(C)CC(=O)O[C@@H]1C[C@H](C)C[C@@H]2CC(=O)[C@@H](C)[C@H]([C@@H]3O[C@H]3[C@H](O)[C@@H]3C=C(C)C(=O)O3)[C@H]21
[1]
  Activity: Active

## Cc1ccc2c(c1)[C@H]1O[C@]3(O)CCO[C@](C)([C@H]1O)[C@]23C
[1]
  Activity: Active

## C[C@H]1C[C@H](O)[C@H]2[C@@H](C=C[C@@](C)(O)[C@]2(C)C(=O)CCO)C1
[1]
  Activity: Active

## C[C@@H]1C=C2C=C[C@]3(CO)OCCC(=O)[C@]3(C)[C@H]2[C@@H](O)C1
[1]
  Activity: Active

## C[C@@H]1C=C2C=CC3OCCC(=O)[C@]3(C)[C@H]2[C@@H](O)[C@H]1O (some centres undefined)
[1]
  Activity: Active
